The values below come from ChEMBL document CHEMBL1132541, “New quaternary ammonium oxicam derivatives targeted toward cartilage: synthesis, pharmacokinetic studies, and antiinflammatory potency” (J Med Chem, 1999).

In this data set the test system is Rattus norvegicus. The experiment in a line: Maximal blood concentration after oral administration of a 30 umol/kg dose of compound. Format: ADME, organism-based. Conditions: in vivo. The arrangement: dose 30 umol/kg, route oral.

`CN1C(C(=O)Nc2cccc[n+]2C)=C(O)c2ccccc2S1(=O)=O.[I-]`: the Cmax was 5.5 nmol/g.

As for `CN1C(C(=O)Nc2ccccn2)=C(O)c2ccccc2S1(=O)=O` [PIROXICAM], the Cmax is listed as 47.8 nmol/g.
